The record followed here is patent US20260273011A1, “COMPOSITION COMPRISING STEWARTIA PSEUDOCAMELLIA EXTRACT AS ACTIVE INGREDIENT FOR PREVENTION OR TREATMENT OF DEMENTIA” (priority 2022, published 2026).

In series [1] the test system is human neuroblastoma SH-SY5Y cells. Conditions: H2O2 50 μM, 24 hours.
Description: First, the cells were plated into a 96-well plate at a concentration of 5×10^3 cells/well, and then cultured for 24 hours at 95% humidity, 5% CO2, and 37° C. for stabilization. After removing the medium, 10 μl of H2O2 diluted with fresh medium was treated at each concentration, and the resulting mixture was allowed to react for 24 hours at 95% humidity, 5% CO2, and 37° C.
The viability of the cells was measured using the MTS (CellTiter 96® AQueous One Solution Cell Proliferation Assay, Promega, USA) reagent. In other words, 10 μl of the reagent was treated per well, and after a reaction at 37° C. for 60 minutes, the absorbance was measured at 490 nm using a microplate reader (Molecular Devices LLC, VersaMax ELISA Microplate Reader, USA).
Series [2] shares this test system. The experiment in a line: Human neuroblastoma SH-SY5Y cell toxicity (MTS). The series is classed as cell-based. On the procedure: Neuronal cells (human neuroblastoma SH-SY5Y) were obtained from the Korean Cell Line Bank (KCLB, Seoul, Korea). The medium used was a minimum essential medium (SH30024.01, Cytiva, USA) containing 10% fetal bovine serum (FBS, Gibco, CA, USA) medium, 25 mM 4-(2-hydroxyethyl)-1-piperazine ethanesulfonic acid (HEPES), and 25 mM NaHCO3. The cells were cultured in an incubator controlled at 95% humidity, 5% CO2, and 37° C., and an antibiotic for the medium (penicillin-streptomycin, Gibco, CA, USA) was used to suppress microbial contamination or proliferation. When the cells covered about 80% of the dish, the dish was washed with phosphate-buffered saline-ethylenediaminetetraacetic acid (PBS-EDTA, Thermo Fisher Scientific, Massachusetts, USA), and then 1 ml of 0.05% trypsin-EDTA (Gibco, Thermo Fisher Scientific, Massachusetts, USA) was used to detach the cells attached to the bottom of the dish and subculture them. The medium was exchanged with fresh medium every 48 to 72 hours to culture the cells.
After removing the medium, 100 μl of the sample diluted with fresh medium was applied and allowed to react with the cells for 24 hours in an incubator at 95% humidity, 5% CO2, and 37° C.
In other words, 1 ml of the reagent was diluted with 9 ml of medium (DMEM high glucose, free FBS), and 100 μl of the mixture was added to each well.

A further series has as its system SH-SY5Y cells. The series is described as follows: ROS generation suppression ability in neurons (DCF-DA, H2O2). It is filed as cell-based, human. Conditions: ursolic acid 0.1 to 5 μg/ml. The protocol: The generation of ROS is measured by the intensity of fluorescent material generation using 2′,7′-dichlorofluorescin diacetate (DCF-DA), and the principle is that 2′,7′-dichlorofluorescin (DCF) in a reduced or acetylated form releases a fluorescent material ([…]) when the acetate group is removed by the […] and ROS generated within cells.
SH-SY5Y cells were plated into a 96-well plate (100 μl) at a concentration of 5×10^4 cells/well and cultured for 24 hours. After the culture, the medium was removed, and the sample was treated at an appropriate concentration using a medium containing no serum and then cultured for 24 hours. After 24 hours, 100 μl of PBS was added and the resulting mixture was washed, and this process was repeated three times. DCF-DA dissolved in dimethyl sulfoxide (DMSO) was diluted to 20 μM (in PBS), and 100 μl of the diluted solution was added and incubated for 20 minutes. After adding 100 μl of 100 μM H2O2 (in PBS), the mixture was allowed to react for 30 minutes, and the fluorescence intensity was measured at 486 nm and 535 nm using an enzyme-linked immunosorbent assay (ELISA) reader.

Series [3] deals with human neuroblastoma SH-SY5Y cells. The series is described as follows: Neuroprotective effect against Aβ-peptide 25-35 cytotoxicity (MTS). Also noted: dose or concentration left out as unconfirmed. The series is classed as cell-based. Conditions: Aβ treatment. On the procedure: (§1) To measure the neuronal cell death concentration by Aβ 25-35, Aβ-protein fragment 25-35 (Sigma-Aldrich, A4559-1 MG) was purchased and used.
(§2) For the aggregation of Aβ, it was dissolved in distilled water and allowed to react at 37° C. for five days at 150 rpm.

For series [4] the test system is unchanged. The series is described as follows: Neuroprotective effect against H2O2 cytotoxicity (MTS). It is filed as cell-based. Conditions: 50 μM H2O2 treatment. The protocol:
After removing the medium, […], which has a cell viability of about 50%, was treated with fresh medium, and then 10 μl of the samples of Examples 1 to 4 and Comparative Example 1 were treated at each concentration, and the resulting mixtures were allowed to react at 95% humidity, 5% CO2, and 37° C. for 24 hours.

For series [5] the test system is unchanged. The experiment in a line: Cell death concentration for Aβ-peptide 25-35 (MTS). It is filed as cell-based. Conditions: Aβ 20 μM, 24 hours. The protocol:
as §1, §2

Read-outs that look alike come from different tables or passages of the source. Ends that are not written are not given here.

With `OO` [Example H2O2, Hydrogen peroxide], in series [1], the cell viability result was “approximately 50%”.

On to `C[C@H]1[C@H](C)CC[C@]2(C(=O)O)CC[C@]3(C)C(=CC[C@@H]4[C@@]5(C)CC[C@H](O)C(C)(C)[C@@H]5CC[C@]43C)[C@H]12` [ursolic acid], for which the “concentration at which toxicity on neurons was exhibited” value in series [2] was not below 10000 ng/mL. Also, the “ROS generation suppression ability” value in the series with SH-SY5Y cells is “significant suppression activity”. In addition, the “neuroprotective effect against Aβ-peptide 25-35 cytotoxicity” value in series [3] is recorded as “significant effect”. Also, the “neuroprotective effect against H2O2 cytotoxicity” value in series [4] is listed as “high cell protection efficacy”.

For “GSNKGAIIGLM [Aβ, Aβ-protein fragment 25-35]”, the cell viability result in series [5] is given as “approximately 50%”.
